Test: Binding affinity to human 6His-thr cIAP1 BIR3 (253 to 363) domain expressed in Escherichia coli measured after 105 mins in dark by time-resolved fluorescence laser-equipped multimode plate reader

Row | Compound | IC50 [nM]
1 | CN[C@@H](C)C(=O)N[C@H](C(=O)N1CCC[C@H]1c1nc(C(=O)c2ccc(F)cc2)cs1)C1CCN(C(=O)c2cnc(N3CCN(CCCOc4cc5ncnc(Nc6n[nH]c(C)c6C)c5cc4S(=O)(=O)C(C)(C)C)CC3)cn2)CC1 | 7.9
2 | Cc1[nH]nc(Nc2ncnc3cc(OCCCN4CCN(C(=O)c5cnc(N6CCN(C[C@H]7CN[C@H](C)CN7CC(=O)N7CC(C)(C)c8c7cc(Cc7ccc(F)cc7)c(=O)n8C)[C@H](C)C6)nc5)CC4)c(S(=O)(=O)C(C)(C)C)cc23)c1C | 5
